Measurements published in PubChem BioAssay AID316 (DTP/NCI, 2004).
Values joined by “and” are separate entries in the source; they are usually repeats but may differ in a detail not shown here. Identical values can stand only once. Toxic doses and inconclusive results are not listed.

Tested on: P1534 leukemia ip, CD2F1 mice, survival T/C
Assay: NCI In Vivo Anticancer Drug Screen. Data for tumor model P1534 Leukemia (intraperitoneal) in CD2F1 (CDF1) mice
Details: higher = longer survival
Protocol: The antitumor activity of compounds was measured in mice bearing transplantable tumors. Survival or tumor size were measured and the results are expressed as the measurement made in the treated group (T) divided by the measurement made in the vehicle treated control group (C). The tumor model used in this assay is P1534 Leukemia (intraperitoneal) in CD2F1 (CDF1) mice

[1] = endpoint: mean survival time, dose: 5.0 mg/kg/injection, schedule: Q01DX010 (ip), vehicle: water
[2] = endpoint: mean survival time, dose: 10.0 mg/kg/injection, schedule: Q01DX010 (ip), vehicle: other
[3] = endpoint: mean survival time, dose: 10.0 mg/kg/injection, schedule: Q01DX010 (ip), vehicle: water
[4] = endpoint: mean survival time, dose: 50.0 mg/kg/injection, schedule: Q01DX010 (ip), vehicle: saline
[5] = endpoint: mean survival time, dose: 100.0 mg/kg/injection, schedule: Q01DX010 (ip), vehicle: saline
[6] = endpoint: mean survival time, dose: 200.0 mg/kg/injection, schedule: Q01DX010 (ip), vehicle: saline
[7] = endpoint: mean survival time, dose: 400.0 mg/kg/injection, schedule: Q01DX010 (ip), vehicle: saline
[8] = endpoint: mean survival time, dose: 12.5 mg/kg/injection, schedule: Q01DX010 (ip), vehicle: saline
[9] = endpoint: mean survival time, dose: 25.0 mg/kg/injection, schedule: Q01DX010 (ip), vehicle: saline

With C/C=C1/CN(C)C2Cc3c([nH]c4ccccc34)C(c3cc4[nH]c5c(c4cc3OC)CCN3CC4CC(C(C)O)C3C5(C(=O)OC)C4)CC1C2C(=O)OC (stereo not given) the T/C [1] was 98 % of control, the T/C [2] was 103 % of control and the T/C [3] was 96 % of control. For the same compound, the T/C (endpoint: mean survival time, dose: 15.0 mg/kg/injection, schedule: Q01DX010 (ip), vehicle: water) was 94 % of control, the T/C (endpoint: mean survival time, dose: 20.0 mg/kg/injection, schedule: Q01DX010 (ip), vehicle: other) was 92 % of control and the T/C (endpoint: mean survival time, dose: 20.0 mg/kg/injection, schedule: Q01DX010 (ip), vehicle: water) was 107 % of control. The T/C (endpoint: mean survival time, dose: 30.0 mg/kg/injection, schedule: Q01DX010 (ip), vehicle: other) was 94 % of control and the T/C (endpoint: mean survival time, dose: 40.0 mg/kg/injection, schedule: Q01DX010 (ip), vehicle: other) was 92 % of control.

For CCCCCCCCCCCCNCCCCCCCCCCCC, the T/C (endpoint: mean survival time, dose: 5.0 mg/kg/injection, schedule: Q01DX010 (ip), vehicle: other) was 106 % of control and the T/C [2] was 98 % of control.

In the case of COc1cc2c3c(c4ccc(OC)c(OC)c4c2cc1OC)CN1CCC[C@@H]1C3, the T/C (endpoint: mean survival time, dose: 2.5 mg/kg/injection, schedule: Q01DX010 (ip), vehicle: water) is reported as 105 % of control, the T/C [1] is reported as 102 % of control and the T/C (endpoint: mean survival time, dose: 7.5 mg/kg/injection, schedule: Q01DX010 (ip), vehicle: water) is reported as 124 % of control. The T/C [3] was 113 % of control.

In the case of COc1ccc2c(=O)cc(-c3ccccc3)n(C)c2c1, the T/C [4] is reported as 103 % of control, the T/C [5] is reported as 103 % of control and the T/C [6] is reported as 103 % of control. The T/C [7] was 96 % of control.

CC(C)=CCN=C(N)N was tested, and the T/C [8] was 103 % of control and the T/C [9] was 106 % of control.

Nc1nc(N)c2nc(CNc3ccc(C(=O)NC(CCC(=O)O)C(=O)O)cc3)cnc2n1 (stereo not given) was tested, and the T/C (endpoint: mean survival time, dose: 25.0 micrograms/kg/injection, schedule: Q01DX010 (ip), vehicle: other) was 109 % of control, the T/C (endpoint: mean survival time, dose: 50.0 micrograms/kg/injection, schedule: Q01DX010 (ip), vehicle: other) was 113 % of control and 122 % of control and the T/C (endpoint: mean survival time, dose: 100.0 micrograms/kg/injection, schedule: Q01DX010 (ip), vehicle: other) was 159 % of control. For the same compound, the T/C (endpoint: mean survival time, dose: 200.0 micrograms/kg/injection, schedule: Q01DX010 (ip), vehicle: other) was 95 % of control and 100 % of control, the T/C (endpoint: median survival time, dose: 0.05 mg/kg/injection, schedule: Q01DX009 (ip), vehicle: sodium bicarbonate) was 164 % of control and the T/C (endpoint: median survival time, dose: 0.1 mg/kg/injection, schedule: Q01DX009 (ip), vehicle: sodium bicarbonate) was 93 % of control.

For CC/C(=C(/CC)c1ccc(O)cc1)c1ccc(O)cc1, the T/C (endpoint: mean survival time, dose: 12.5 mg/kg/injection, schedule: Q01DX010 (sc), vehicle: steriod suspending solution) was 95 % of control and 100 % of control, the T/C (endpoint: mean survival time, dose: 25.0 mg/kg/injection, schedule: Q01DX010 (sc), vehicle: steriod suspending solution) was 95 % of control and 100 % of control and the T/C (endpoint: mean survival time, dose: 50.0 mg/kg/injection, schedule: Q01DX010 (sc), vehicle: steriod suspending solution) was 95 % of control and 100 % of control. For the same compound, the T/C (endpoint: mean survival time, dose: 100.0 mg/kg/injection, schedule: Q01DX010 (sc), vehicle: steriod suspending solution) was 90 % of control and 100 % of control.

In the case of NCCCC(N)C(=O)NCCCCCCNCCCCCCNC(=O)C(N)CCCN (stereo not given), the T/C [8] is reported as 100 % of control, the T/C [9] is reported as 92 % of control and the T/C [4] is reported as 100 % of control. For the same compound, the T/C [5] was 96 % of control.

For CCC12CC(C(=O)OC)=C3Nc4cc(OC)ccc4C34CCN(CC3OC31)C42 (stereo not given), the T/C (endpoint: mean survival time, dose: 3.75 mg/kg/injection, schedule: Q01DX010 (ip), vehicle: saline) was 96 % of control, the T/C (endpoint: mean survival time, dose: 7.5 mg/kg/injection, schedule: Q01DX010 (ip), vehicle: saline) was 100 % of control and the T/C (endpoint: mean survival time, dose: 15.0 mg/kg/injection, schedule: Q01DX010 (ip), vehicle: saline) was 90 % of control. For the same compound, the T/C (endpoint: mean survival time, dose: 30.0 mg/kg/injection, schedule: Q01DX010 (ip), vehicle: saline) was 96 % of control.

For CS(=O)(=O)OCC(O)C(O)C(O)C(O)COS(C)(=O)=O (stereo not given), the T/C [9] was 107 % of control, the T/C [4] was 103 % of control and 100 % of control and the T/C [5] was 107 % of control. For the same compound, the T/C [6] was 107 % of control and 121 % of control.

For O=CN(O)CC(=O)O, the T/C (endpoint: mean survival time, dose: 15.6 mg/kg/injection, schedule: Q01DX010 (ip), vehicle: saline) was 100 % of control, the T/C (endpoint: mean survival time, dose: 31.3 mg/kg/injection, schedule: Q01DX010 (ip), vehicle: saline) was 100 % of control and the T/C (endpoint: mean survival time, dose: 62.5 mg/kg/injection, schedule: Q01DX010 (ip), vehicle: saline) was 100 % of control. For the same compound, the T/C (endpoint: mean survival time, dose: 125.0 mg/kg/injection, schedule: Q01DX010 (ip), vehicle: saline) was 103 % of control.

For CC(CCc1ccc(OC(=O)c2ccccc2)cc1)OC(=O)c1ccccc1 (stereo not given), the T/C [4] was 96 % of control, the T/C [5] was 89 % of control and the T/C [6] was 86 % of control. For the same compound, the T/C [7] was 89 % of control.
